Data from US12653191B2, “Active compound combinations” (Bayer Aktiengesellschaft, priority 2020, dated 2026).
Read-outs that look alike come from different tables or passages of the source.

Columns and labels:
Parastagonospora nodorum [1] = experiment: in vitro-Test with fungal microorganisms, Method A (tables H1-H4); format: cell-based
In short: (§1)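 Methanol/emulsifier compound solution evaporated in well; liquid potato dextrose medium + spore or mycelium suspension added; 20° C, 85% RH, 3-5 d; photometric read 620 nm; % efficacy vs untreated.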

Diaporthe citri [2] = experiment: in vitro-Test with fungal microorganisms, Method B (tables F12-F15); format: cell-based
In short: (§2)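 Steps: solvent evaporation leaves the compound coating the wells; fungus-inoculated liquid growth medium goes on top; absorbance at 600 nm is measured; incubation runs 3 to 7 days at 20° C. with 85% relative humidity. Inhibition is then read photometrically and expressed as efficacy against untreated control.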

Fusarium culmorum [3] = experiment: in vitro-Test with fungal microorganisms, Method A (tables G1-G4); format: cell-based; conditions: Fusarium culmorum, alone, read-out: Efficacy
In short: as §1

Botrytis cinerea = experiment: in vitro-Test with fungal microorganisms, Method A (tables B1-B14); format: cell-based; conditions: Botrytis cinerea
In short: as §1

Diaporthe citri [4] = experiment: in vitro-Test with fungal microorganisms, Method A (tables F1-F11); format: cell-based; conditions: Diaporthe citri
In short: as §1

Cordana musae [5] = experiment: in vitro-Test with fungal microorganisms, Method A (tables E1-E8); format: cell-based; conditions: Neocordana musae
In short: as §1

Alternaria alternate = experiment: in vitro-Test with fungal microorganisms, Method A (tables A1-A12); format: cell-based, Alternaria alternata
In short: as §1

[6] = tested on: Ustilago segetum var. avenae; experiment: in vitro-Test with fungal microorganisms, Method A (tables I1-I5); format: cell-based
In short: as §1

[7] = tested on: Colletotrichum lindemuthianum; experiment: in vitro-Test with fungal microorganisms, Method A (tables D1-D8); format: cell-based; conditions: Colletotrichum lindemuthianum
In short: as §1

[8] = tested on: Ustilago segetum var. avenae; experiment: in vitro-Test with fungal microorganisms, Method B (tables I6-I11); format: cell-based; conditions: read-out: Efficacy %
In short: as §2

Parastagonospora nodorum [9] = experiment: in vitro-Test with fungal microorganisms, Method B (tables H5-H8); format: cell-based; conditions: Parastagonospora nodorum
In short: as §2

Colletotrichum coccodes = experiment: in vitro-Test with fungal microorganisms, Method B (tables J1-J11); format: cell-based; conditions: Colletotrichum coccodes
In short: as §2

Alternaria alternata = experiment: in vitro-Test with fungal microorganisms, Method B (tables A13-A22); format: cell-based; conditions: Alternaria alternata
In short: as §2

Cercospora beticola [10] = experiment: in vitro-Test with fungal microorganisms, Method B (tables C11-C20); format: cell-based; conditions: Cercospora beticola, read-out: Efficacy %
In short: as §2

Cercospora beticola [11] = experiment: in vitro-Test with fungal microorganisms, Method A (tables C1-C10); format: cell-based
In short: as §1

Fusarium culmorum [12] = experiment: in vitro-Test with fungal microorganisms, Method B (tables G5-G15); format: cell-based; conditions: Fusarium culmorum, read-out: Efficacy
In short: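 Compound in methanol plus alkylaryl-polyglycol-ether emulsifier dried in wells, then liquid medium containing Fusarium culmorum spores or mycelium added. Incubated 3-7 days at 20° C, 85% relative humidity; growth read at 600 nm. Efficacy relative to untreated control (0% equals control growth, 100% none).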

Cordana musae [13] = experiment: in vitro-Test with fungal microorganisms, Method B (tables E9-E16); format: cell-based; conditions: for Efficacy %: single substance
In short: as §2

[14] = read-out: Efficacy %, alone, 1.0 ppm
[15] = read-out: Efficacy %, alone, 5.0 ppm
[16] = read-out: Efficacy %, mixing partner alone, 0.04 ppm
[17] = read-out: Efficacy %, mixing partner alone, 0.2 ppm
[18] = read-out: Efficacy %, mixing partner alone, 1.0 ppm
[19] = read-out: Efficacy %, mixing partner alone, 5.0 ppm

Compound `N#Cc1c[nH]cc1-c1cccc2c1OC(F)(F)O2` [(13.001) fludioxonil, fludioxonil] has an Efficacy (Parastagonospora nodorum [1]; 0.04 ppm) of 0%, an Efficacy (Parastagonospora nodorum [1]; 0.2 ppm) of 0% and an Efficacy (Parastagonospora nodorum [1]; single active compound, 0.04 ppm) of 0%. It also gave an Efficacy (Parastagonospora nodorum [1]; single active compound, 0.2 ppm) of 0%, an Efficacy (Parastagonospora nodorum [1]; single active compound, 1.0 ppm) of 38% and an Efficacy (Parastagonospora nodorum [1]; single active compound, 5.0 ppm) of 64%. The Efficacy (Diaporthe citri [2]; Table F12, 0.2 ppm alone) was 0%, the Efficacy (Diaporthe citri [2]; Table F12, 1 ppm alone) was 9% and the Efficacy (Diaporthe citri [2]; Table F13, 1 ppm alone) was 41%. The Efficacy (Diaporthe citri [2]; Table F13, 5 ppm alone) was 0%, the inhibition of growth at 0.2 ppm (Fusarium culmorum [3]; 0.2 ppm) was 36% and the inhibition of growth at 1 ppm (Fusarium culmorum [3]; 1.0 ppm) was 98%. The inhibition of growth at 5 ppm (Fusarium culmorum [3]; 5.0 ppm) was 99%, the inhibition of growth at 0.2 ppm (Botrytis cinerea; read-out: Efficacy %, alone, 0.2 ppm) was 100% and the inhibition of growth at 1 ppm (Botrytis cinerea; [14]) was 100%. It also gave an inhibition of growth at 5 ppm (Botrytis cinerea; [15]) of 100%, an inhibition of growth at 0.04 ppm (Botrytis cinerea; read-out: Efficacy, 0.04 ppm) of 19% and an inhibition of growth at 0.2 ppm (Botrytis cinerea; read-out: Efficacy, 0.2 ppm) of 100%. The inhibition of growth at 0.04 ppm (Diaporthe citri [4]; read-out: Efficacy, applied alone, 0.04 ppm) was 0%, the inhibition of growth at 0.2 ppm (Diaporthe citri [4]; read-out: Efficacy, applied alone, 0.2 ppm) was 0% and the inhibition of growth at 0.04 ppm (Cordana musae [5]; [16]) was 2%. It also gave an inhibition of growth at 0.2 ppm (Cordana musae [5]; [17]) of 0%, an inhibition of growth at 1 ppm (Cordana musae [5]; [18]) of 83% and an inhibition of growth at 5 ppm (Cordana musae [5]; [19]) of 55%. For the same compound, the inhibition of growth at 0.04 ppm (Cordana musae [5]; read-out: Efficacy %, single substance, 0.04 ppm) was 0%, the inhibition of growth at 0.04 ppm (Alternaria alternate; Alternaria, read-out: Efficacy %, applied alone, 0.04 ppm) was 9% and the inhibition of growth at 0.2 ppm (Alternaria alternate; Alternaria, read-out: Efficacy %, applied alone, 0.2 ppm) was 17%. The inhibition of growth at 1 ppm (Alternaria alternate; Alternaria, read-out: Efficacy %, applied alone, 1.0 ppm) was 97%, the inhibition of growth at 5 ppm (Alternaria alternate; Alternaria, read-out: Efficacy %, applied alone, 5.0 ppm) was 100% and the Efficacy % (Alternaria alternate; applied alone, 0.04 ppm) was 0%. It also gave an inhibition of growth at 0.04 ppm ([6]; read-out: Efficacy %, alone, 0.04 ppm) of 19%, an inhibition of growth at 1 ppm [6, 14] of 100% and an inhibition of growth at 5 ppm [6, 15] of 100%. The inhibition of growth at 0.04 ppm [7, 16] was 11%, the inhibition of growth at 0.2 ppm [7, 17] was 60% and the inhibition of growth at 1 ppm [7, 18] was 85%. For the same compound, the inhibition of growth at 5 ppm [7, 19] was 90%, the inhibition of growth at 0.04 ppm ([7]; read-out: Efficacy %, single active at 0.04 ppm) was 0% and the inhibition of growth at 0.2 ppm ([7]; read-out: Efficacy %, single active at 0.2 ppm) was 58%. The inhibition of growth at 5 ppm ([7]; read-out: Efficacy %, single active at 5.0 ppm) was 88%, the inhibition of growth at 0.04 ppm [8] was 55% and the inhibition of growth at 0.2 ppm [8] was 93%. The inhibition of growth at 5 ppm [8] was 100%, the inhibition of growth at 1 ppm (Parastagonospora nodorum [9]; read-out: Efficacy, 1 ppm) was 58% and the inhibition of growth at 5 ppm (Parastagonospora nodorum [9]; read-out: Efficacy, 5 ppm) was 98%. It also gave an inhibition of growth at 0.04 ppm (Colletotrichum coccodes; read-out: Efficacy %, 0.04 ppm) of 54%, an inhibition of growth at 1 ppm (Colletotrichum coccodes; read-out: Efficacy %, 1 ppm) of 100% and an inhibition of growth at 5 ppm (Colletotrichum coccodes; read-out: Efficacy %, 5 ppm) of 100%. It also gave an inhibition of growth at 0.04 ppm (Colletotrichum coccodes; read-out: Efficacy %, single active compound at 0.04 ppm) of 74%, an inhibition of growth at 1 ppm (Alternaria alternata; read-out: Efficacy, 1 ppm) of 88% and an inhibition of growth at 5 ppm (Alternaria alternata; read-out: Efficacy, 5 ppm) of 100%. For the same compound, the inhibition of growth at 0.04 ppm (Alternaria alternata; read-out: Efficacy, single compound, 0.04 ppm) was 13%, the inhibition of growth at 0.2 ppm (Alternaria alternata; read-out: Efficacy, single compound, 0.2 ppm) was 18% and the inhibition of growth at 5 ppm (Alternaria alternata; read-out: Efficacy, single compound, 5 ppm) was 99%. For the same compound, the inhibition of growth at 5 ppm (Cercospora beticola [10]) was 93%, the Efficacy % (Cercospora beticola [11]; 5.0 ppm alone) was 98% and the inhibition of growth at 0.04 ppm (Cercospora beticola [11]; Cercospora beticola, read-out: Efficacy %, 0.04 ppm) was 0%. It also gave an inhibition of growth at 0.04 ppm (Cercospora beticola [11]; Cercospora beticola, read-out: Efficacy %, 0.04 ppm alone) of 0%, an inhibition of growth at 0.2 ppm (Cercospora beticola [11]; Cercospora beticola, read-out: Efficacy %, 0.2 ppm alone) of 14% and an inhibition of growth at 1 ppm (Cercospora beticola [11]; Cercospora beticola, read-out: Efficacy %, 1.0 ppm) of 55%. It also gave an inhibition of growth at 5 ppm (Cercospora beticola [11]; Cercospora beticola, read-out: Efficacy %, 5.0 ppm) of 90%, an inhibition of growth at 5 ppm (Cercospora beticola [11]; Cercospora beticola, read-out: Efficacy %, 5.0 ppm alone) of 93% and an inhibition of growth at 0.04 ppm (Fusarium culmorum [12]; alone) of 0%. It also gave an inhibition of growth at 0.2 ppm (Fusarium culmorum [12]; alone) of 22%, an inhibition of growth at 1 ppm (Fusarium culmorum [12]; alone) of 68% and an inhibition of growth at 5 ppm (Fusarium culmorum [12]; 5 ppm, alone) of 98%. It also gave an inhibition of growth at 0.04 ppm (Fusarium culmorum [12]; single active compound) of 0%, an inhibition of growth at 0.2 ppm (Fusarium culmorum [12]; single active compound) of 26% and an inhibition of growth at 1 ppm (Fusarium culmorum [12]; single active compound) of 88%. For the same compound, the inhibition of growth at 0.04 ppm (Cordana musae [13]; Neocordana musae, read-out: Efficacy) was 6%, the Efficacy % (Cordana musae [13]; 0.2 ppm) was 0% and the Efficacy % (Cordana musae [13]; 1 ppm) was 0%. The Efficacy % (Cordana musae [13]; 5 ppm) was 11%.
